This note sets out measurements from the SangsterLogP compilation.

For the first series the following is noted: pH 2.0.
On to `CC(=O)N1Cc2ccccc2C[C@H]1C(=O)OCc1ccc(C#N)cc1`, for which the logD worked out at 2.41. Still for that read-out and setting: the result for `CC[C@@H](NS(=O)(=O)c1ccc(C)cc1)C(=O)Oc1ccc2c3c(c(=O)oc2c1)CCCC3` reads 3.08.

The same series, now with this note: pH 5.0.
Consider `CC(C)CN1C(=O)/C(=C/[C@@H]2CC=CCC2)SC1=S`, for which the logD was determined as 6.66. With `CCc1ccccc1NC(=O)[C@]12CC[C@](C)(C(=O)O1)C2(C)C`, the logD amounted to 3.31. In turn, `CCCCN1C(=O)c2ccc(C(=O)OCC(=O)N[C@H](C)C(C)C)cc2C1=O` had a logD of 3.62. Same read-out and setting: the result for `CCOC(=O)c1[nH]c(C)c(C(=O)OCC(=O)N(C)[C@@H]2CCS(=O)(=O)C2)c1C` reads 3.35; that for `CCOC(=O)c1ccc(C#N)cc1`, 1.87; that for `Cc1cccc(NC(=O)Cc2ccc(Br)cc2)c1C`, 4.05. For the molecule `C[C@H](C(=O)NC1CCCC1)N(c1ccc(Cl)cc1)S(C)(=O)=O`, the logD was determined as 3.48. Same read-out and setting: next, `CC[C@]1(C)NC(=S)N2N1C(=S)N[C@@]2(C)CC`: 2.44. As for `COc1cc2c(cc1OC)[C@H](COc1ccc3c(C)cc(=O)oc3c1)N(C(=O)C1CCCCC1)CC2`, the pH-dependent lipophilicity (logD) worked out at 5.07. Molecule `O=C(/C=C/c1ccccc1)Nc1cccc(NC(=O)c2cccc(Cl)c2)c1` had a logD of 5.53.

Molecule `CCOC(=O)c1c(N2C(=O)[C@@H]3CC(C)=C(C)C[C@H]3C2=O)sc(C)c1C` returned a logD of 4.56. In the case of `CCOC(=O)N1CCN(C(=O)c2ccc(N3C(=O)[C@H]4CCCC[C@@H]4C3=O)cc2)CC1`, the logD was found to be 3.74. On to `COc1ccc2c(c1)O[C@](O)(C(F)(F)F)CC2=O`, for which the logD amounted to 2.79. Same read-out and setting: next, `COc1ccc([C@H]2CC(=O)C3=C(C2)Nc2ccc4ccccc4c2[C@@H]3c2ccc3c(c2)OCO3)cc1`: 5.77; `CCOC(=O)c1c(C)nc(SC[C@@]2(O)CCCC[C@@H]2SC)c(C#N)c1-c1ccccc1`: 6.01.

`O=C(c1nn2c(c1Br)N[C@H](c1cccs1)C[C@H]2C(F)(F)F)N1CCCC1` showed a logD of 4.47.

The series is the same for the next values; noted with them: pH 6.5.
Take `COc1ccccc1N(CCOC(=O)[C@@H]1CC(=O)N(c2ccccc2)C1)C1=NS(=O)(=O)c2ccccc21`: the log distribution coefficient (logD) amounted to 2.5. The molecule `CCCOc1ccc(N2C(=O)C[C@H](N3CCNC3=S)C2=O)cc1` had a logD of 2.68. Regarding `C[C@@H]1CCCN(c2nc3c(c(=O)n(C)c(=O)n3C)n2CCSc2nc3ccccc3s2)C1`, the logD came to 5.05. Same read-out and setting: the result for `Cc1ccc(N2CC(=O)N(/N=C/c3cn(-c4ccccc4)nc3-c3ccc(Cl)cc3)CC2=O)cc1` reads 6.14; that for `COC(=O)c1ccc(C(=O)OC)c(NC(=O)CSc2ncnc3sc4c(c23)CC[C@@H](C)C4)c1`, 5.79. In turn, `O=C(CCCCCN1C(=O)/C(=C\c2cccs2)SC1=S)N1CCOCC1` gave a logD of 4.92.

The series is the same for the next values; noted with them: pH 7.3.
The molecule `CCCCOC(=O)C1=C(C)NC2=C(C(=O)CCC2)[C@H]1c1ccccc1OC` yielded a logD of 4.21. `COc1cccc([C@@H]2C3=C(CCCC3=O)N=C(C)C2C(=O)OC[C@@H]2CCCO2)c1` (stereo not given in full) returned a logD of 3.62.

Still in this series, the particulars now being: pH 8.0.
`Cc1sc2ncn(CC(=O)N[C@@H]3CCC[C@@H](C)[C@H]3C)c(=O)c2c1C` showed a log distribution coefficient (logD) of 4.34. Still for that read-out and setting: next, `OC[C@H]1CCCN(c2ncnc3scc(-c4ccccc4)c23)C1`: 3.9.

Staying with this series, now noted: pH 9.2.
For `Cc1cc(C(=O)NCCc2c(C)[nH]c3ccccc23)ccc1[N+](=O)[O-]`, the logD worked out at 4.12.

Still in this series, the particulars now being: pH 10.0.
In turn, `CCOC(=O)C1=C(C)NC2=C(C(=O)C[C@H](c3ccc(OC)c(OC)c3)C2)[C@H]1c1ccccc1OC` gave a logD of 3.79.

The molecule `CCOCCOC(=O)C1=C(C)NC2=C(C(=O)CCC2)[C@@H]1c1ccc(C)cc1` registered a logD of 3.89. The molecule `CC1=C(C(=O)OC[C@@H]2CCCO2)[C@H](c2cc([N+](=O)[O-])ccc2Cl)C2=C(CC(C)(C)CC2=O)N1` showed a logD of 4.53.

`CCOCCOC(=O)[C@H](C)n1cnc2sc3c(c2c1=O)CC[C@H](C)C3`: the logD was determined as 4.25.

Staying with this series, now noted: pH 10.5.
With `COCCOC(=O)C1=C(C)NC2=C(C(=O)CC(c3cccc(OC)c3)C2)C1c1coc2ccc(C)cc2c1=O` (stereo not given), the logD stood at 5.23. `CC1(C)CC(=O)C2=C(C1)OC(N)=C(C#N)[C@H]2c1c2ccccc2cc2ccccc12` came in with a logD of 4.99.

A word on the logD: it is the decadic logarithm of the distribution of all forms, ionised or not, between an organic phase and buffer at a given pH. Lower therefore signals lower lipophilicity.
